Calls of active or inactive are those of the source. Peptide text beside a SMILES is read from it.
What was measured:
Rattus norvegicus [1] = test: Antiallodynic activity in Sprague-Dawley rat chronic constriction injury model assessed as change in ipsilateral hindpaw withdrawal threshold at 0.16 to 16 umol/kg, iv administered as single bolus dose separated by 2 to 3 days wash-out period; format: functional, organism-based
Rattus norvegicus [2] = test: Antiallodynic activity in iv dosed Sprague-Dawley rat chronic constriction injury model assessed as change in ipsilateral hindpaw withdrawal threshold administered as single bolus dose separated by 2 to 3 days wash-out period; format: functional
Rattus norvegicus [3] = test: Antiallodynic activity in iv dosed Sprague-Dawley rat chronic constriction injury model assessed as change in ipsilateral hindpaw withdrawal threshold administered as single bolus dose separated by 2 to 3 days wash-out period measured at 15 mins to 2 hrs post dose; format: functional, organism-based
Rattus norvegicus [4] = test: Antinociceptive activity in contralateral hindpaw of Sprague-Dawley rat chronic constriction injury model at 5 umol/kg, iv administered as single bolus dose separated by 2 to 3 days wash-out period; format: functional, organism-based
Rattus norvegicus [5] = test: Antiallodynic activity in Sprague-Dawley rat chronic constriction injury model assessed as change in ipsilateral hindpaw withdrawal threshold at 0.5 umol/kg, iv administered as single bolus dose separated by 2 to 3 days wash-out period; format: functional, organism-based
Rattus norvegicus [6] = test: Toxicity in Sprague-Dawley rat assessed as induction of constipation measured as gastrointestinal propulsion rate at 16 umol/kg, iv administered as single bolus dose prior to aqueous activated charcoal suspension treatment measured after 1 hr (reference value: 65.3 +/- 3.1%); format: organism-based; conditions: in vivo
Rattus norvegicus [7] = test: Toxicity in Sprague-Dawley rat assessed as induction of respiratory depression measured as change in hypercapnia-induced stimulation of minute ventilation at 1.6 umol/kg, iv administered as single bolus dose after 0.5 to 2 hrs; format: organism-based; conditions: in vivo
Rattus norvegicus [8] = test: Toxicity in Sprague-Dawley rat castor oil-induced diarrhoea model assessed as induction of constipation at 1.6 to 16 umol/kg, iv administered as single bolus dose incubated for 5 mins prior to castor oil-challenge measured after 8 hrs; format: organism-based; conditions: in vivo
Rattus norvegicus [9] = test: Antiallodynic activity in iv dosed Sprague-Dawley rat chronic constriction injury model assessed as change in ipsilateral hindpaw withdrawal threshold administered as single bolus dose; format: functional
Rattus norvegicus [10] = test: Antiallodynic activity in Sprague-Dawley rat chronic constriction injury model assessed as change in ipsilateral hindpaw withdrawal threshold at 0.5 to 5 umol/kg, iv administered as single bolus dose; format: functional, organism-based

Row | SMILES | Activity (Rattus norvegicus [1]) | ED50 (Rattus norvegicus [2]) | Activity (Rattus norvegicus [3]) | Activity (Rattus norvegicus [4]) | Activity (Rattus norvegicus [5]) | also measured
1 | Cc1cc(O)cc(C)c1C[C@H](N)C(=O)N1CCC[C@H]1C(=O)N[C@@H](Cc1c[nH]c2ccccc12)C(=O)N[C@@H](Cc1ccccc1)C(N)=O | inactive | – | – | – | – | –
2 | NC(=O)[C@H](Cc1ccccc1)NC(=O)[C@H](Cc1c[nH]c2ccccc12)NC(=O)[C@@H]1CCCN1C(=O)[C@@H](N)Cc1ccc(O)cc1 | inactive | – | – | – | – | –
3 | CCCCCCC(N)C(=O)N[C@@H](Cc1c(C)cc(O)cc1C)C(=O)N1CCC[C@H]1C(=O)N[C@@H](Cc1c[nH]c2ccccc12)C(=O)N[C@@H](Cc1ccccc1)C(N)=O (stereo partly specified) (HELM PEPTIDE1{[CCCCCCC(N)C(=O)[*:2]].[Cc1cc(O)cc(C)c1C[C@H](N[*:1])C(=O)[*:2]].P.W.F.[am]}$$$$V2.0) | – | 6.18 µmol/kg | Dose-dependent effect | inactive | Active | –
4 | CCCCCCC(N)C(=O)N[C@@H](Cc1ccc(O)cc1)C(=O)N1CCC[C@H]1C(=O)N[C@@H](Cc1c[nH]c2ccccc12)C(=O)N[C@@H](Cc1ccccc1)C(N)=O (stereo partly specified) (HELM PEPTIDE1{[CCCCCCC(N)C(=O)[*:2]].Y.P.W.F.[am]}$$$$V2.0) | – | 6.58 µmol/kg | Dose-dependent effect | inactive | Active | Activity (Rattus norvegicus [6]): 77%; Activity (Rattus norvegicus [7]): Non-toxic; Activity (Rattus norvegicus [8]): Non-toxic; ED50 (Rattus norvegicus [9]): 6.64 µmol/kg; Activity (Rattus norvegicus [10]): Active
5 | CN1CC[C@]23c4c5ccc(O)c4O[C@H]2[C@@H](O)C=C[C@H]3[C@H]1C5 | – | 2.64 µmol/kg | – | – | – | –

Source: ChEMBL document CHEMBL2390818, “Peripherally acting novel lipo-endomorphin-1 peptides in neuropathic pain without producing constipation” (Bioorg Med Chem, 2013)
